The results in this text go back to ChEMBL document CHEMBL1151382, “A pharmacological study of two bisbenzylisoquinoline alkaloids, thalistyline and obamegine” (J Nat Prod, 1982).

Data set [1] in a line: Antagonist activity at alpha adrenergic receptor in rabbit aortic strips assessed as decrease in of phenylephrine-induced contraction at 3 X 10^-4 M. The format is functional, Oryctolagus cuniculus. The arrangement: scale not given: the % may be the effect or the level left.
The species named for the next data set is Oryctolagus cuniculus. Briefly: Antagonist activity at alpha adrenergic receptor in rabbit aortic strips assessed as decrease in of phenylephrine-induced contraction at 10^-4 M. Format: functional.
For data set [2], the system named is Canis familiaris. Briefly: Cardiovascular effect in anesthetized normotensive dog assessed as reduction in mean arterial pressure at 2 mg/kg, iv dosed twice with second dose being administered 2.5 hrs interval after the first dose. The format is functional, Canis lupus familiaris, Artery.
For data set [3], the system named is Canis familiaris. Briefly: Cardiovascular effect in anesthetized normotensive iv dosed dog assessed as decrease in mean arterial pressure. Format: functional, organism-based. The note with it: Canis lupus familiaris; Artery.
The subject of data set [4] is Canis familiaris. In words: Toxicity in iv dosed dog assessed as inhibition of respiration. The format is organism-based, Canis lupus familiaris. The note with it: in vivo.
The subject of data set [5] is Canis familiaris. Briefly: Cardiovascular effect in anesthetized normotensive dog assessed as decrease in mean arterial pressure at 2 mg/kg, iv upto 22 mins. Format: functional, Canis lupus familiaris, Artery.
In data set [6] the test system is Canis familiaris. Briefly: Toxicity in dog at 0.5 to 4 mg/kg, iv. The note with it: in vivo. Also on record: dose 0.5-4 mg/kg, route intravenous. The format is organism-based, Canis lupus familiaris.
The nature of data set [7]: Antagonist activity at alpha adrenergic receptor in rabbit aortic strips assessed as inhibition of phenylephrine-induced contraction. The format is functional, Oryctolagus cuniculus.
The species entered for the next data set is Rattus norvegicus. Briefly: Blockade of neuromuscular transmission activity in albino Sprague-Dawley rat hemidiaphragm assessed as inhibition of electrically-stimulated phrenic nerve contraction at 1 to 30 X 10^-6 M. Format: functional, tissue-based. The note with it: Diaphragm.
Data set [8] concerns Canis familiaris. In words: Cardiovascular effect in anesthetized normotensive iv dosed dog assessed as decrease in heart rate. The format is functional, Canis lupus familiaris.
Data set [9] in a line: Blockade of neuromuscular transmission activity in albino Sprague-Dawley rat hemidiaphragm assessed as inhibition of electrically-stimulated phrenic nerve contraction. The format is functional, tissue-based, Diaphragm.
Data set [10] concerns Canis familiaris. In words: Cardiovascular effect in anesthetized normotensive dog assessed as rise in heart rate at 0.1 mg/kg, iv. Format: functional, Canis lupus familiaris.
The subject of data set [11] is Canis familiaris. In words: Cardiovascular effect in anesthetized normotensive dog assessed as decrease in mean arterial pressure at 0.1 to 0.4 mg/kg, iv. The format is functional, organism-based. The note with it: Canis lupus familiaris, Artery.
Data set [12] is described as follows: Protection of albino Sprague-Dawley rat hemidiaphragm from alpha-bungarotoxin blockade assessed as recovery of nerve-stimulated muscle contraction at 3 X 10^-5 M. Format: functional, Muscle tissue.
The subject of data set [13] is Canis familiaris. Briefly: Toxicity in dog at > 0.4 mg/kg, iv. The format is organism-based, Canis lupus familiaris. Also on record: dose 0.4 mg/kg, route intravenous. The note with it: in vivo.
In data set [14] the test system is Canis familiaris. In words: Cardiovascular effect in anesthetized normotensive dog assessed as fall in heart rate at 0.1 to 0.4 mg/kg, iv. Format: functional, Canis lupus familiaris. To be noted: dose mg/kg 0.1-0.4.
Data set [15] is described as follows: Blockade of neuromuscular transmission activity in albino Sprague-Dawley rat hemidiaphragm assessed as inhibition of electrically-stimulated phrenic nerve contraction at 10^-5 M relative to control in presence of Eserine. Format: functional, Diaphragm. Also on record: scale not given: the % may be the effect or the level left.
Data set [16] in a line: Blockade of neuromuscular transmission activity in albino Sprague-Dawley rat hemidiaphragm assessed as inhibition of electrically-stimulated phrenic nerve contraction at 10^-5 M relative to control. Format: functional, Diaphragm. Also on record: scale not given: the % may be the effect or the level left.
Data set [17] relates to Canis familiaris. In words: Toxicity in dog assessed as inhibition of respiration at > 0.4 mg/kg, iv. To be noted: in vivo. The arrangement: dose 0.4 mg/kg, route intravenous. The format is organism-based, Canis lupus familiaris.

The source made the active and inactive calls. No cut-off for these calls is given here.

With `COc1cc2c3cc1Oc1c(O)c(OC)cc4c1[C@@H](Cc1ccc(O)c(c1)Oc1ccc(cc1)C[C@@H]3N(C)CC2)N(C)CC4` [OBAMEGINE], the Activity in [1] was 30%; in the data set with Canis familiaris [2], 11 mmHg; in the data set with Canis familiaris [3] it was “Dose-dependent effect”; with Canis familiaris [4], “Non-toxic”; with Canis familiaris [5], 61 mmHg; in the data set on Canis familiaris [6], “Non-toxic”. In the data set with Canis familiaris [8], the Activity stood at 20 bpm. Further, in the data set filed under Oryctolagus cuniculus, the outcome was Active. Moreover, in data set [7], the pKb is on record as 5.3. In the data set filed under Rattus norvegicus, the outcome was inactive.

Regarding `COc1cc2c3cc1Oc1cc(ccc1O)C[C@@H]1c4c(cc(OC)c(O)c4Oc4ccc(cc4)C[C@@H]3N(C)CC2)CC[N+]1(C)C`, the IC50 in data set [9] was found to be 1.42 µM.

Turning to `COc1ccc(C[C@H]2c3cc(OC)c(OC)c(OC)c3CC[N+]2(C)C)cc1Oc1ccc(C[C@H]2c3cc(OC)c4c(c3CCN2C)OCO4)cc1.[Cl-]` [THALISTYLINE], the Activity was 20 bpm in the data set with Canis familiaris [10]; 65.8% in data set [12]; “Toxic” in the data set on Canis familiaris [13]; 20 bpm in the data set with Canis familiaris [14]; 63.8% in data set [15]; 24.7% in [16]. In addition, the Activity entry in the data set on Canis familiaris [17] is given as “Toxic”. Moreover, in the data set on Canis familiaris [11], the result was Active. In addition, the IC50 in data set [9] was found to be 4.98 µM. The Kb in data set [7] (Oryctolagus cuniculus, read-out: pA2 (converted)) was 0.468 µM.

As usually defined, the pKb is the Kb on a negative log10 scale, so that one unit is a factor of ten. For orientation: IC50 means the midpoint of a concentration-inhibition curve.
